Patent US20260028326A1, “COMPOUND BASED ON ISOINDOLINE-SUBSTITUTED GLUTARIMIDE BACKBONE AND USE THEREOF” (GLUETACS THERAPEUTICS (SHANGHAI) CO., LTD., priority 2022, published 2026)

Legend:
[1] = target: GSPT1 protein (Homo sapiens (Human), UniProt P15170+Q96SW2); experiment: Western-blot assay of substrate protein degradation in hPBMC, GSPT1; type: cell-based; details: hPBMC cells, compound 500 nM, 24 hours, Western blot
Experimental: (§1) After treating the cells with the compounds for 24 hours, the cells were collected and lysed using RIPA protein lysate containing phosphatase inhibitors. The lysate was then placed on ice for 30-60 minutes and centrifuged. The supernatant was aspirated as the extracted total cell protein. The protein concentration of the supernatant was determined using the conventional BCA (Bicinchoninic Acid) assay. The supernatant was then mixed with 4×SDS sample loading buffer, denatured at 95° C. for 5 minutes, and then subjected to SDS-PAGE electrophoresis on a polyacrylamide gel, followed by transfer to a nitrocellulose membrane (NC membrane). The membrane was blocked with blocking buffer at room temperature for 1-2 hours, and then antibody incubation and detection were carried out according to the antibody instructions provided by Cell Signaling Technology.
(§2) Half-Maximal Degradation Concentration value (the drug concentration required for degrading proteins by 50%, abbreviated as DC50) reads method: comparing the gray values of the Western blotting bands for the drug treatment with the gray values of the Western blotting band for the DMSO control, and reading the drug concentration range corresponding to the gray value of the Western blotting bands for the drug treatment which is equal to half of the gray value of the Western blotting band for the DMSO control.
(§3) DC50 value could also be calculated as follows: using software ImageJ to quantify the gray values of the Western blotting bands for the drug treatment, fitting the relationship curve between drug concentrations and gray values, and from the fitted curve, calculating the drug concentration corresponding to half of the gray value of the Western blotting band for the DMSO control.

[2] = target: human Cereblon WT GST-tagged protein (Homo sapiens (Human), UniProt Q96SW2); experiment: CRBN-binding affinity, HTRF (CEREBLON BINDING kit)
Chain of human Cereblon WT GST-tagged protein (Q96SW2 whole entry): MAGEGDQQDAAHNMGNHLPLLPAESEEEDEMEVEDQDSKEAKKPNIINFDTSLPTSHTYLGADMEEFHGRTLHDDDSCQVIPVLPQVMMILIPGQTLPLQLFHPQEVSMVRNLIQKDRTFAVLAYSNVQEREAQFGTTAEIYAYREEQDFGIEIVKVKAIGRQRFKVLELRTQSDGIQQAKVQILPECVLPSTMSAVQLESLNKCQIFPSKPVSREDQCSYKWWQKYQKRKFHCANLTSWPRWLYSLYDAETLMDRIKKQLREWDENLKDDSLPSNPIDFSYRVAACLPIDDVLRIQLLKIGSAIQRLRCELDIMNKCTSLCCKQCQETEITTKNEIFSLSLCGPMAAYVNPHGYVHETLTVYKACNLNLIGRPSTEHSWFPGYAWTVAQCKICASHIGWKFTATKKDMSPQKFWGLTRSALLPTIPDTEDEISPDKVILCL
Procedure, shortened: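 HTRF competition readout: compounds compete with a thalidomide-Re conjugate for GST-tagged wild-type human CRBN detected via Eu-labelled anti-GST antibody. Inhibition rate derived relative to protein-free blank wells.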

[3] = target: IKZF3 protein (Homo sapiens (Human), UniProt Q96SW2+Q9UKT9); experiment: Western-blot assay of substrate protein degradation in hPBMC, IKZF3; type: cell-based; details: hPBMC cells, compound 500 nM, 24 hours, Western blot
Chain of IKZF3 protein (Q9UKT9 whole entry): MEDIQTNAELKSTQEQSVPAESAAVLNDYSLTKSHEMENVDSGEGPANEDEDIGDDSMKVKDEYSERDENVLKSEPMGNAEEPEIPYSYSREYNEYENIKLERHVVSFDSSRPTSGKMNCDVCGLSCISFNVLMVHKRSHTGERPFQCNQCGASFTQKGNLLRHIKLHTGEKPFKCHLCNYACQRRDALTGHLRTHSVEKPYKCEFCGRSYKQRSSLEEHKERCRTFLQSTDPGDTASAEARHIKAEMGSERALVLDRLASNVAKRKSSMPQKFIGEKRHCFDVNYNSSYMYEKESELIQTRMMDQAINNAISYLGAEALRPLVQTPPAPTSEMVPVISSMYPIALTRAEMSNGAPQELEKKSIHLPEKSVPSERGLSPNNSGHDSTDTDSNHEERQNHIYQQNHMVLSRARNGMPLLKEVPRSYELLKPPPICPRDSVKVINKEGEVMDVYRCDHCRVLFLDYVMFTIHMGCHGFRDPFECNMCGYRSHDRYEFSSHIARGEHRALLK
Chain of IKZF3 protein (Q96SW2 whole entry): as the sequence (Q96SW2 whole entry) above
Chain of IKZF3 protein (Q16531 whole entry partner): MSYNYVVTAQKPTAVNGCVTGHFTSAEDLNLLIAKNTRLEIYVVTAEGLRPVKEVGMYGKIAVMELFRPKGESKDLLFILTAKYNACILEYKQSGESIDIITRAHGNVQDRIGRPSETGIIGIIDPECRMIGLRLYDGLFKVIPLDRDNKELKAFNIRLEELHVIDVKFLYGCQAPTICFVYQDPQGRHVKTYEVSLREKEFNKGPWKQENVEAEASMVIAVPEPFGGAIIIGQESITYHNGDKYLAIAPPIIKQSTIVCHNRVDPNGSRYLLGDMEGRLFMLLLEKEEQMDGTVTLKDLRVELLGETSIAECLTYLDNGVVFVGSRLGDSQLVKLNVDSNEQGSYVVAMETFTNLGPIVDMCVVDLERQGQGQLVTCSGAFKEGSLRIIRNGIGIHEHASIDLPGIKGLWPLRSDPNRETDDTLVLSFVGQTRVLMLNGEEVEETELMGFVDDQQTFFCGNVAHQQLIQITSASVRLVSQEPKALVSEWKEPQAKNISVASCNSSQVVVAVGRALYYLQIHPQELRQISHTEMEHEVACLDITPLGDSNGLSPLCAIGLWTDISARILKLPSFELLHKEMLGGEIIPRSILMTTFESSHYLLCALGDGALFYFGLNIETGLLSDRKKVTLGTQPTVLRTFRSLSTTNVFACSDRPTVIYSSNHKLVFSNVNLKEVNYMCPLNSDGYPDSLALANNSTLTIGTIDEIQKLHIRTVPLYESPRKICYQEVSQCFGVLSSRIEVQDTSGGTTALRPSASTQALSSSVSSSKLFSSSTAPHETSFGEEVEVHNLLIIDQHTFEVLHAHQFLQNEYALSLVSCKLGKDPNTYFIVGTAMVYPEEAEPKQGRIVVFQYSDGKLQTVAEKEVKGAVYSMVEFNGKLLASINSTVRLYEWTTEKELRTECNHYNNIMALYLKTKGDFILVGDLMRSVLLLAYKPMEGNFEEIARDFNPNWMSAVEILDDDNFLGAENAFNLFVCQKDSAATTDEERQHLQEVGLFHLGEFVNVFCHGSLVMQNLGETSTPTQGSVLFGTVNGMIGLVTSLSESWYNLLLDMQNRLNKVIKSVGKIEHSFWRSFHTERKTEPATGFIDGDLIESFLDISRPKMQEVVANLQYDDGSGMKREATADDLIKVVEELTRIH
Experimental: as §1, §2, §3

[4] = target: IKZF1 protein (Homo sapiens (Human), UniProt Q13422+Q96SW2); experiment: Western-blot assay of substrate protein degradation in hPBMC, IKZF1; type: cell-based; details: hPBMC cells, compound 500 nM, 24 hours, Western blot
Chain of IKZF1 protein (Q13422 whole entry): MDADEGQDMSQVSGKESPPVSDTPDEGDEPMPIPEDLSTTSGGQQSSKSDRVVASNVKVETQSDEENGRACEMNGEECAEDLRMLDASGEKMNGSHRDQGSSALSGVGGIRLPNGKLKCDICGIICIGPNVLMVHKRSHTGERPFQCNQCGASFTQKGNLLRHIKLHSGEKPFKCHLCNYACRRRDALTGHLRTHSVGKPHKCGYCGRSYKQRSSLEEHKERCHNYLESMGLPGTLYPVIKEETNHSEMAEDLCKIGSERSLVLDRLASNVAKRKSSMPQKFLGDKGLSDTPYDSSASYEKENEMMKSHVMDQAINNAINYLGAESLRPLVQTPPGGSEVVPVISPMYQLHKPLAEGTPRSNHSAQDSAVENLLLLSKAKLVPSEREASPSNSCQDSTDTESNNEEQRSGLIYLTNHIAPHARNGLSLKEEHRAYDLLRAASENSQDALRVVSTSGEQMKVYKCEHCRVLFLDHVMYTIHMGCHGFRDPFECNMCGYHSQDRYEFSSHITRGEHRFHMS
Chain of IKZF1 protein (Q96SW2 whole entry): as the sequence (Q96SW2 whole entry) above
Chain of IKZF1 protein (Q16531 whole entry partner): as the sequence (Q16531 whole entry partner) above
Experimental: as §1, §2, §3

Chain of GSPT1 protein (P15170 whole entry): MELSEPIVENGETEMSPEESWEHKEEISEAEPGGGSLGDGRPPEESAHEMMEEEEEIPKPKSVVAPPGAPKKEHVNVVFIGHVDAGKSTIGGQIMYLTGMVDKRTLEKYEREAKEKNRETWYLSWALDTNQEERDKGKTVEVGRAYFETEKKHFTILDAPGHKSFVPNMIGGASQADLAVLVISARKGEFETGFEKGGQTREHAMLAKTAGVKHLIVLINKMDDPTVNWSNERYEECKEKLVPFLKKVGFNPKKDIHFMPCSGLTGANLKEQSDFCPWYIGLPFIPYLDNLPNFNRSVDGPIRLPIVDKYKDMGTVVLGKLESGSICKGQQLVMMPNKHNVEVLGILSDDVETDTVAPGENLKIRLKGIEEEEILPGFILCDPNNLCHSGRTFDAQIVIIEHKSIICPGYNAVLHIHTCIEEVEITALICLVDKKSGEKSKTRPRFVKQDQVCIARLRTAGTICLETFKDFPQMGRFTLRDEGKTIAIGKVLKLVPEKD
Chain of GSPT1 protein (Q96SW2 whole entry): as the sequence (Q96SW2 whole entry) above
Chain of GSPT1 protein (Q16531 whole entry partner): as the sequence (Q16531 whole entry partner) above

| Structure (SMILES) | residual substrate protein level, GSPT1 [1] | IC50 [2] [µM] | residual substrate protein level, IKZF3 [3] | residual substrate protein level, IKZF1 [4] |
| --- | --- | --- | --- | --- |
| CC1(C)CCC(CN2CC3CC2CN3Cc2ccc3c(c2)CN(C2CCC(=O)NC2=O)C3=O)=C(c2ccc(F)cc2)C1 (stereo not drawn) [GT-05401, 3-(5-((5-((4′-fluoro-5,5-dimethyl-3,4,5,6-tetrahydro-[1,1′-biphenyl]-2-yl)methyl)-2,5-diazabicyclo[2.2.1]heptan-2-yl)methyl)-1-oxoisoindolin-2-yl)piperidine-2,6-dione] | B (B represents a residual substrate protein level of >50%) | 0.59 | A (A represents a residual substrate protein level of <50%) | B (B represents a residual substrate protein level of >50%) |
| CC1(C)CCC(C(=O)N2CC3CCC2CN3Cc2ccc3c(c2)CN(C2CCC(=O)NC2=O)C3=O)=C(c2ccc(F)cc2)C1 (stereo not drawn) [GT-05402, 3-(5-((5-(4′-fluoro-5,5-dimethyl-3,4,5,6-tetrahydro-[1,1′-biphenyl]-2-carbonyl)-2,5-diazabicyclo[2.2.2]octan-2-yl)methyl)-1-oxoisoindolin-2-yl)piperidine-2,6-dione] | B (B represents a residual substrate protein level of >50%) | 0.43 | A (A represents a residual substrate protein level of <50%) | B (B represents a residual substrate protein level of >50%) |
| CC1(C)CCC(C(=O)N2CCC3(CC2)CN(Cc2ccc4c(c2)CN(C2CCC(=O)NC2=O)C4=O)C3)=C(c2ccc(F)cc2)C1 (stereo not drawn) [GT-05404, 3-(5-((7-(4′-fluoro-5,5-dimethyl-3,4,5,6-tetrahydro-[1,1′-biphenyl]-2-carbonyl)-2,7-diazaspiro[3.5]nonan-2-yl)methyl)-1-oxoisoindolin-2-yl)piperidine-2,6-dione] | B (B represents a residual substrate protein level of >50%) | 0.49 | A (A represents a residual substrate protein level of <50%) | B (B represents a residual substrate protein level of >50%) |
| CC1(C)CCC(C(=O)N2CC(=Cc3ccc4c(c3)CN(C3CCC(=O)NC3=O)C4=O)C2)=C(c2ccc(Cl)cc2)C1 (stereo not drawn) [GT-05420, 3-(5-((1-(4′-chloro-5,5-dimethyl-3,4,5,6-tetrahydro-[1,1′-biphenyl]-2-carbonyl)azetidin-3-ylidene)methyl)-1-oxoisoindolin-2-yl)piperidine-2,6-dione] | A (A represents a residual substrate protein level of <50%) | 0.73 | B (B represents a residual substrate protein level of >50%) | B (B represents a residual substrate protein level of >50%) |
| CC1(C)CCC(C(=O)N2CC(O)(C(O)c3ccc4c(c3)CN(C3CCC(=O)NC3=O)C4=O)C2)=C(c2ccc(Cl)cc2)C1 (stereo not drawn) [GT-05426, 3-(5-((1-(4′-chloro-5,5-dimethyl-3,4,5,6-tetrahydro-[1,1′-biphenyl]-2-carbonyl)-3-hydroxyazetidin-3-yl)(hydroxy)methyl)-1-oxoisoindolin-2-yl)piperidine-2,6-dione] | A (A represents a residual substrate protein level of <50%) | 0.62 | A (A represents a residual substrate protein level of <50%) | B (B represents a residual substrate protein level of >50%) |
| O=C1CCC(N2Cc3cc(C(=O)N4C5CC4CN(C(=O)C4=C(c6ccc(F)cc6)CCCC4)C5)ccc3C2=O)C(=O)N1 (stereo not drawn) [GT-05449, 3-(5-(3-(4′-fluoro-3,4,5,6-tetrahydro-[1,1′-biphenyl]-2-carbonyl)-3,6-diazabicyclo[3.1.1]heptane-6-carbonyl)-1-oxoisoindolin-2-yl)piperidine-2,6-dione] | A (A represents a residual substrate protein level of <50%) | 1.69 | B (B represents a residual substrate protein level of >50%) | B (B represents a residual substrate protein level of >50%) |
| CC1(C)CCC(CN2CC3CC(C2)N3C(=O)c2ccc3c(c2)CN(C2CCC(=O)NC2=O)C3=O)=C(c2ccc(F)cc2)C1 (stereo not drawn) [GT-05450, 3-(5-(3-((4′-fluoro-5,5-dimethyl-3,4,5,6-tetrahydro-[1,1′-biphenyl]-2-yl)methyl)-3,6-diazabicyclo[3.1.1]heptane-6-carbonyl)-1-oxoisoindolin-2-yl)piperidine-2,6-dione] | A (A represents a residual substrate protein level of <50%) | 0.89 | B (B represents a residual substrate protein level of >50%) | B (B represents a residual substrate protein level of >50%) |
| O=C1CCC(N2Cc3cc(C(=O)N4CCN(Cc5ccccc5-c5ccc(Cl)cc5)CC4)ccc3C2=O)C(=O)N1 (stereo not drawn) [GT-05455, 3-(5-(4-((4′-chloro-[1,1′-biphenyl]-2-yl)methyl)piperazine-1-carbonyl)-1-oxoisoindolin-2-yl)piperidine-2,6-dione] | A (A represents a residual substrate protein level of <50%) | 1.07 | B (B represents a residual substrate protein level of >50%) | B (B represents a residual substrate protein level of >50%) |
| O=C1CCC(N2Cc3c(ccc(CN4CCN(C(=O)C5=C(c6ccc(F)cc6)CCCC5)CC4)c3F)C2=O)C(=O)N1 (stereo not drawn) [GT-05472, 3-(4-fluoro-5-((4-(4′-fluoro-3,4,5,6-tetrahydro-[1,1′-biphenyl]-2-carbonyl)piperazin-1-yl)methyl)-1-oxoisoindolin-2-yl)piperidine-2,6-dione] | A (A represents a residual substrate protein level of <50%) | 1.12 | B (B represents a residual substrate protein level of >50%) | B (B represents a residual substrate protein level of >50%) |
| O=C1CCC(N2Cc3cc(CN4CCN(C(=O)C5=C(c6ccc(F)cc6)CCCC5)CC4)c(F)cc3C2=O)C(=O)N1 (stereo not drawn) [GT-05473, 3-(6-fluoro-5-((4-(4′-fluoro-3,4,5,6-tetrahydro-[1,1′-biphenyl]-2-carbonyl)piperazin-1-yl)methyl)-1-oxoisoindolin-2-yl)piperidine-2,6-dione] | A (A represents a residual substrate protein level of <50%) | 1.16 | B (B represents a residual substrate protein level of >50%) | B (B represents a residual substrate protein level of >50%) |
| CC1(C)CCC(C(=O)N2CC(O)(C(O)c3ccc4c(c3)CN(C3CCC(=O)NC3=O)C4=O)C2)=C(c2ccc(F)cc2)C1 (stereo not drawn) [GT-05490, 3-(5-((1-(4′-fluoro-5,5-dimethyl-3,4,5,6-tetrahydro-[1,1′-biphenyl]-2-carbonyl)-3-hydroxyazetidin-3-yl)(hydroxy)methyl)-1-oxoisoindolin-2-yl)piperidine-2,6-dione] | B (B represents a residual substrate protein level of >50%) | 0.58 | B (B represents a residual substrate protein level of >50%) | A (A represents a residual substrate protein level of <50%) |
| CC1(C)CCC(CN2CCCN(Cc3ccc4c(c3)CN(C3CCC(=O)NC3=O)C4=O)CC2)=C(c2ccc(F)cc2)C1 (stereo not drawn) [GT-05504, 3-(5-((4-((4′-fluoro-5,5-dimethyl-3,4,5,6-tetrahydro-[1,1′-biphenyl]-2-yl)methyl)-1,4-diazepan-1-yl)methyl)-1-oxoisoindolin-2-yl)piperidine-2,6-dione] | B (B represents a residual substrate protein level of >50%) | 0.73 | A (A represents a residual substrate protein level of <50%) | A (A represents a residual substrate protein level of <50%) |
